Test results reported in US10189843B2, “Fused pyrazole derivative having autotaxin inhibitory activity” (The University of Tokyo, priority 2014, dated 2019).

biological target: T1, Human autotaxin enzyme (Homo sapiens, UniProt Q13822); assay: Evaluation of autotaxin inhibitor, Method C (18:0 Lyso PC substrate, choline assay, Resorufin fluorescence); type: biochemical; settings: Method C (Test Example 3), read-out: Inhibitory activity (enzyme inhibitory activity, IC50)
T1 construct: purchased R&D System
In short: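 Recombinant human autotaxin with compound and 200 μM 18:0 Lyso PC (stock) in Tris-HCl pH 7.5, NaCl, MgCl2, Triton X-100, 2 h RT. Released choline detected via choline oxidase/peroxidase/Amplex-type reagent, 20 min, resorufin fluorescence 531/598 nm; % inhibition vs no-compound and no-enzyme controls, concentration-response curve.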

Row | Structure (SMILES) | IC50 [nM]
1 | N#Cc1ccc(CN2CC(COCC(F)(F)C(F)F)n3nc(-c4ccc(Cl)cc4)cc3C2=O)cc1 (stereo not drawn) [Compound I-0190] | 10 to 100
2 | CCCCC1CN(Cc2ccc(C#N)cc2)C(=O)c2cc(-c3ccc(C(F)(F)F)cc3)nn21 (stereo not drawn) [Compound I-0191] | 100 to 1000
3 | CCCCC1CN(Cc2ccc(C#N)cc2)C(=O)c2cc(-c3ccc(OC(F)(F)F)cc3CC#N)nn21 (stereo not drawn) [Compound I-0192] | 100 to 1000
4 | CC(C)OCC1CN(Cc2ccc(C#N)cc2)C(=O)c2cc(-c3ccc(Cl)cc3)nn21 (stereo not drawn) [Compound I-0193] | 100 to 1000
5 | CCCCC1CN(Cc2ccc(C#N)cc2)C(=O)c2cc(-c3ccc(OC(F)(F)F)cc3)nn21 (stereo not drawn) [Compound I-0194] | 100 to 1000
6 | N#Cc1ccc(CN2CC(COC(F)(F)C(F)F)n3nc(-c4ccc(Cl)cc4)cc3C2=O)cc1 (stereo not drawn) [Compound I-0195] | 100 to 1000
7 | O=C1NCC(COCC(F)(F)C(F)F)n2nc(-c3ccc(Cl)cc3)cc21 (stereo not drawn) [Compound I-0196] | 100 to 1000
8 | CCCCC1CNC(=O)c2cc(-c3ccc(Cl)cc3)nn21 (stereo not drawn) [Compound I-0197] | ≥ 1000
9 | CCOCC1CNC(=O)c2cc(-c3ccc(Cl)cc3)nn21 (stereo not drawn) [Compound I-0198] | ≥ 1000
10 | CC(C)OCC1CNC(=O)c2cc(-c3ccc(Cl)cc3)nn21 (stereo not drawn) [Compound I-0199] | ≥ 1000
11 | CCCCCC1CN(c2ccncc2)C(=O)c2cc(-c3ccc(Cl)cc3)nn21 (stereo not drawn) [Compound I-0200] | ≥ 1000
12 | CCCCC1CN(Cc2ccc(C#N)cc2)C(=O)c2cc(-c3ccc(C#N)cc3)nn21 (stereo not drawn) [Compound I-0201] | 10 to 100
13 | CCCCCC1CN(c2cccc(CC(=O)O)c2)C(=O)c2cc(-c3ccc(Cl)cc3)nn21 (stereo not drawn) [Compound I-0202] | ≥ 1000
14 | CCCCCC1CN(c2cccc(OCC(=O)O)c2)C(=O)c2cc(-c3ccc(Cl)cc3)nn21 (stereo not drawn) [Compound I-0203] | ≥ 1000
15 | CCCCC1CN(Cc2ccc(C#N)cc2)C(=O)c2cc(-c3ccc(Cl)cc3C=O)nn21 (stereo not drawn) [Compound I-0204] | 10 to 100
16 | CCCCC1CN(Cc2ccc(C#N)cc2)C(=O)c2cc(-c3ccc(OC)cc3)nn21 (stereo not drawn) [Compound I-0205] | 100 to 1000
17 | CCCCC1CN(Cc2ccc(C#N)cc2)C(=O)c2cc(-c3ccc(OC)c(CO)c3)nn21 (stereo not drawn) [Compound I-0206] | ≥ 1000
18 | CCCCC1CN(Cc2ccc(C#N)cc2)C(=O)c2cc(-c3ccc(Cl)cc3CO)nn21 (stereo not drawn) [Compound I-0207] | 10 to 100
19 | CCCCC1CN(CC(=O)N(C)CC#N)C(=O)c2cc(-c3ccc(Cl)cc3)nn21 (stereo not drawn) [Compound I-0208] | 10 to 100
20 | CCCCC1CN(CC(=O)N(C)CCC#N)C(=O)c2cc(-c3ccc(Cl)cc3)nn21 (stereo not drawn) [Compound I-0209] | 10 to 100
21 | CCCCC1CN(CC(=O)N2CCCC(C(N)=O)C2)C(=O)c2cc(-c3ccc(Cl)cc3)nn21 (stereo not drawn) [Compound I-0210] | 10 to 100
22 | CCCCC1CN(CC(=O)N(CC#N)CC#N)C(=O)c2cc(-c3ccc(Cl)cc3)nn21 (stereo not drawn) [Compound I-0211] | 10 to 100
23 | CCCCC1CN(CC(=O)NCCOCCO)C(=O)c2cc(-c3ccc(Cl)cc3)nn21 (stereo not drawn) [Compound I-0212] | 100 to 1000
24 | CCCCC1CN(CC(=O)NCC#N)C(=O)c2cc(-c3ccc(Cl)cc3)nn21 (stereo not drawn) [Compound I-0213] | 10 to 100
25 | CCCCC1CN(CC(=O)N(CC)CCC#N)C(=O)c2cc(-c3ccc(Cl)cc3)nn21 (stereo not drawn) [Compound I-0214] | 10 to 100

Row | Structure (SMILES) | IC50 [nM]
26 | CCCCC1CN(CC(=O)NCC(N)=O)C(=O)c2cc(-c3ccc(Cl)cc3)nn21 (stereo not drawn) [Compound I-0215] | 100 to 1000
27 | CCCCC1CN(CC(=O)NCC(O)C(F)(F)F)C(=O)c2cc(-c3ccc(Cl)cc3)nn21 (stereo not drawn) [Compound I-0216] | 100 to 1000
28 | CCCCC1CN(CC(=O)N2CCN(C(N)=O)CC2)C(=O)c2cc(-c3ccc(Cl)cc3)nn21 (stereo not drawn) [Compound I-0217] | 100 to 1000
29 | CCCCC1CN(CC(=O)NCCO)C(=O)c2cc(-c3ccc(Cl)cc3)nn21 (stereo not drawn) [Compound I-0218] | 100 to 1000
30 | CCCCC1CN(CC(=O)NCC(O)CO)C(=O)c2cc(-c3ccc(Cl)cc3)nn21 (stereo not drawn) [Compound I-0219] | 100 to 1000
31 | CCCCC1CN(CC(=O)N2CCC(C#N)CC2)C(=O)c2cc(-c3ccc(Cl)cc3)nn21 (stereo not drawn) [Compound I-0220] | 100 to 1000
32 | CCCCC1CN(CC(=O)N[C@@H]2CCC[C@H]2O)C(=O)c2cc(-c3ccc(Cl)cc3)nn21 (stereo partly drawn) [Compound I-0221] | 100 to 1000
33 | CCCCC1CN(CC(=O)NCCC(N)=O)C(=O)c2cc(-c3ccc(Cl)cc3)nn21 (stereo not drawn) [Compound I-0222] | 100 to 1000
34 | CCCCC1CN(CC(=O)N2[C@H](C)COC[C@@H]2C)C(=O)c2cc(-c3ccc(Cl)cc3)nn21 (stereo partly drawn) [Compound I-0223] | 100 to 1000
35 | CCCCC1CN(CC(=O)NCC(=O)NC)C(=O)c2cc(-c3ccc(Cl)cc3)nn21 (stereo not drawn) [Compound I-0224] | 100 to 1000
36 | CCCCC1CN(CC(=O)NCCC(=O)N(C)C)C(=O)c2cc(-c3ccc(Cl)cc3)nn21 (stereo not drawn) [Compound I-0225] | 100 to 1000
37 | CCCCC1CN(CC(=O)NCc2cccc(O)c2)C(=O)c2cc(-c3ccc(Cl)cc3)nn21 (stereo not drawn) [Compound I-0226] | 100 to 1000
38 | CCCCC1CN(CC(=O)N2CCC[C@H]2C)C(=O)c2cc(-c3ccc(Cl)cc3)nn21 (stereo partly drawn) [Compound I-0227] | 100 to 1000
39 | CCCCC1CN(CC(=O)N(C)CC(O)c2ccccc2)C(=O)c2cc(-c3ccc(Cl)cc3)nn21 (stereo not drawn) [Compound I-0228] | 100 to 1000
40 | CCCCC1CN(CC(=O)NCC(C)(C)O)C(=O)c2cc(-c3ccc(Cl)cc3)nn21 (stereo not drawn) [Compound I-0229] | 100 to 1000
41 | CCCCC1CN(CC(=O)NCCC#N)C(=O)c2cc(-c3ccc(Cl)cc3)nn21 (stereo not drawn) [Compound I-0230] | 10 to 100
42 | CCCCC1CN(CC(=O)NC(C#N)C#N)C(=O)c2cc(-c3ccc(Cl)cc3)nn21 (stereo not drawn) [Compound I-0231] | ≥ 1000
43 | CCCCC1CN(CC(=O)NCc2nn[nH]n2)C(=O)c2cc(-c3ccc(Cl)cc3)nn21 (stereo not drawn) [Compound I-0232] | 10 to 100
44 | CCCCC1CN(CC(=O)NCc2cc(=O)[nH]o2)C(=O)c2cc(-c3ccc(Cl)cc3)nn21 (stereo not drawn) [Compound I-0233] | 10 to 100
45 | CCCCC1CN(CC(=O)NCCc2cn[nH]c2)C(=O)c2cc(-c3ccc(Cl)cc3)nn21 (stereo not drawn) [Compound I-0234] | 100 to 1000
46 | CCCCC1CN(CC(=O)N(CCC#N)CCC#N)C(=O)c2cc(-c3ccc(Cl)cc3)nn21 (stereo not drawn) [Compound I-0235] | 10 to 100
47 | CCCCC1CN(CC(=O)NCc2ccnc(O)c2)C(=O)c2cc(-c3ccc(Cl)cc3)nn21 (stereo not drawn) [Compound I-0236] | ≥ 1000
48 | CCCCC1CN(CC(=O)NCC2(CO)COC2)C(=O)c2cc(-c3ccc(Cl)cc3)nn21 (stereo not drawn) [Compound I-0237] | 100 to 1000
49 | CCCCC1CN(CC(=O)N2[C@@H]3CC[C@H]2C[C@@H](O)C3)C(=O)c2cc(-c3ccc(Cl)cc3)nn21 (stereo partly drawn) [Compound I-0238] | 100 to 1000
50 | CCCCC1CN(CC(=O)N2CCOC(C#N)C2)C(=O)c2cc(-c3ccc(Cl)cc3)nn21 (stereo not drawn) [Compound I-0239] | 10 to 100

Row | Structure (SMILES) | IC50 [nM]
51 | CCCCC1CN(CC(=O)N2CCO[C@H](C)C2)C(=O)c2cc(-c3ccc(Cl)cc3)nn21 (stereo partly drawn) [Compound I-0240] | 100 to 1000
52 | CCCCC1CN(CC(=O)N2CCCC[C@H]2C)C(=O)c2cc(-c3ccc(Cl)cc3)nn21 (stereo partly drawn) [Compound I-0241] | 100 to 1000
53 | CCCCC1CN(CC(=O)N2CCC[C@H](C)C2)C(=O)c2cc(-c3ccc(Cl)cc3)nn21 (stereo partly drawn) [Compound I-0242] | 100 to 1000
54 | CCCCC1CN(CC(=O)N2CCC(OCCO)CC2)C(=O)c2cc(-c3ccc(Cl)cc3)nn21 (stereo not drawn) [Compound I-0243] | 100 to 1000
55 | CCCCC1CN(CC(=O)NCCCC#N)C(=O)c2cc(-c3ccc(Cl)cc3)nn21 (stereo not drawn) [Compound I-0244] | 100 to 1000
56 | CCCCC1CN(CC(=O)N[C@@H]2CCC[C@H]2O)C(=O)c2cc(-c3ccc(Cl)cc3)nn21 (stereo partly drawn) [Compound I-0245] | 100 to 1000
57 | CCCCC1CN(CC(=O)N2CCC[C@@H]2C)C(=O)c2cc(-c3ccc(Cl)cc3)nn21 (stereo partly drawn) [Compound I-0246] | 10 to 100
58 | CCCCC1CN(CC(=O)N2CCCC[C@@H]2C)C(=O)c2cc(-c3ccc(Cl)cc3)nn21 (stereo partly drawn) [Compound I-0247] | 10 to 100
59 | CCCCC1CN(CC(=O)N2CCC[C@@H](C)C2)C(=O)c2cc(-c3ccc(Cl)cc3)nn21 (stereo partly drawn) [Compound I-0248] | 100 to 1000
60 | CCCCC1CN(CC(=O)OC)C(=O)c2cc(-c3ccc(Cl)cc3)nn21 (stereo not drawn) [Compound I-0249] | 10 to 100
61 | CCCOCC1CN(CC(=O)OC(C)(C)C)C(=O)c2cc(-c3ccc(Cl)cc3)nn21 (stereo not drawn) [Compound I-0250] | 10 to 100
62 | CCCOCC1CN(CC(=O)NC2(CC#N)CC2)C(=O)c2cc(-c3ccc(Cl)cc3)nn21 (stereo not drawn) [Compound I-0251] | 100 to 1000
63 | CCCOCC1CN(CC(=O)NCC(C)(C)O)C(=O)c2cc(-c3ccc(Cl)cc3)nn21 (stereo not drawn) [Compound I-0252] | 10 to 100
64 | CCCOCC1CN(CC(=O)O)C(=O)c2cc(-c3ccc(Cl)cc3)nn21 (stereo not drawn) [Compound I-0253] | ≥ 1000
65 | CCCCC1CN(CC(=O)C2CCCCC2)C(=O)c2cc(-c3ccc(Cl)cc3)nn21 (stereo not drawn) [Compound I-0254] | 10 to 100
66 | CCCCC1CN(Cc2cccnc2)C(=O)c2cc(-c3ccc(Cl)cc3)nn21 (stereo not drawn) [Compound I-0255] | 10 to 100
67 | CCCCC1CN(Cc2ccccn2)C(=O)c2cc(-c3ccc(Cl)cc3)nn21 (stereo not drawn) [Compound I-0256] | 100 to 1000
68 | CCCCC1CN(Cc2ccncc2)C(=O)c2cc(-c3ccc(Cl)cc3)nn21 (stereo not drawn) [Compound I-0257] | 100 to 1000
69 | CCCCC1CN(Cc2cncn2C)C(=O)c2cc(-c3ccc(Cl)cc3)nn21 (stereo not drawn) [Compound I-0258] | 100 to 1000
70 | CCCCC1CN(Cc2ncn(C)n2)C(=O)c2cc(-c3ccc(Cl)cc3)nn21 (stereo not drawn) [Compound I-0259] | 100 to 1000
71 | CCCCC1CN(Cc2ncco2)C(=O)c2cc(-c3ccc(Cl)cc3)nn21 (stereo not drawn) [Compound I-0260] | 100 to 1000
72 | CCCCC1CN(Cc2nc3ccccc3o2)C(=O)c2cc(-c3ccc(Cl)cc3)nn21 (stereo not drawn) [Compound I-0261] | 100 to 1000
73 | CCCCC1CN(C(C(C)=O)c2ccccc2)C(=O)c2cc(-c3ccc(Cl)cc3)nn21 (stereo not drawn) [Compound I-0262] | ≥ 1000
74 | CCCCC1CN(C2CCCCC2=O)C(=O)c2cc(-c3ccc(Cl)cc3)nn21 (stereo not drawn) [Compound I-0263] | 100 to 1000
75 | CCCCC1CN(C2CCN(CC(F)(F)F)C2=O)C(=O)c2cc(-c3ccc(Cl)cc3)nn21 (stereo not drawn) [Compound I-0264] | 10 to 100
